# Results: patent US20110263817A1, “METAL-BINDING COMPOUNDS AND USES THEREFOR” (priority 1999, published 2011)
# Residues, ends and D or L forms follow the SMILES beside them. No end group written: not given here.
# Columns and labels:
# [1] = tested on: human umbilical vein endothelial cells (HUVEC); assay: Copper-induced IL-8 secretion from HUVEC (ELISA); assay type: cell-based; details: 25 μM CuCl2, 24 hours; P<0.007
# Procedure: Human umbilical vein endothelial cells (HUVEC) (5.0×10^4 cells) were incubated in serum-free and ascorbate-free endothelial cell basal medium-2 (EGM2) medium (BioWhittaker) with ITS supplement with (i) copper, (ii) a tetrapeptide analogue of the high-affinity, N-terminal Cu(II) binding site of human albumin (D-Asp D-Ala D-His D-Lys or d-DAHK), or (iii) both of them (n=3, in duplicate). IL-8 was determined by ELISA (see Example 13). […] Upon visual examination, all cells appeared to be viable at 24 hours.
# [2] = Passage through a model of the blood brain barrier; assay type: in vitro ADME
# [3] = Cu(II)/H2O2 hydroxyl radical generation, 2-deoxy-D-ribose degradation (TBA, 532 nm), Example 7; assay type: biochemical; details: CuCl2 0.1 mM, H2O2 2.0 mM
# Procedure: The ability of the L-tetrapeptide to inhibit the generation of ROS was tested as described in Gutteridge and Wilkins, Biochim. Biophys. Acta, 759, 38-41 (1983) and Cheeseman et al., Biochem. J., 252, 649-653 (1988). Briefly, Cu(II) and H2O2 were mixed causing the generation of hydroxyl radicals in a Fenton-type reaction. The hydroxyl radicals attack the sugar 2-deoxy-D-ribose (the sugar residue of DNA) to produce fragments. Heating the fragments at low pH produces malonaldehyde that, upon the addition of 2-thiobarbituric acid, yields a pink chromogen which can be measured spectrophotometrically at 532 nm. Thus, the absorbance at 532 nm is a measure of the damage to 2-deoxy-D-ribose.
# The assay was performed with and without the L-tetrapeptide. […] Clearly, the L-tetrapeptide inhibited the degradation of 2-deoxy-D-ribose by hydroxyl radicals.
# [4] = Inhibition of hydroxyl radical production, Cu(II)/ascorbic acid deoxyribose/TBA assay, Example 10; assay type: biochemical; details: for % Inhibition (decrease in absorbance compared to buffer alone): CuCl2 10 μM; for formation of the pink chromogen: data not shown
# Procedure: The ability of the compounds listed above to inhibit the generation of hydroxyl radicals was tested as described in Gutteridge and Wilkins, Biochim. Biophys. Acta, 759:38-41 (1983). Briefly, Cu(II) and ascorbic acid were mixed causing the generation of hydroxyl radicals. Then, deoxyribose was added, and the hydroxyl radicals, if present, attacked the deoxyribose to produce fragments. […]. Thus, absorbance at 532 nm is a measure of the damage to deoxyribose and, therefore, of hydroxyl radical formation.
# To perform the assay, CuCl2 in buffer (20 mM KH2PO4 buffer, pH 7.4) and either one of the test compounds in buffer or buffer alone were added to test tubes (final concentration of CuCl2 was 10 μM). The test tubes were incubated for 15 minutes at room temperature. Then, 0.5 mM ascorbic acid in buffer and 1.9 mM 2-deoxy-D-ribose in buffer were added to each test tube, and the test tubes were incubated for 1 hour at 37° C. Finally, 1 ml of 1% (w/v) TBA in 50 mM NaOH and 1 ml of concentrated acetic acid were added to each test tube, and the test tubes were incubated in boiling water for 15 minutes. After the test tubes had cooled for 15 minutes, the absorbance at 532 nm was read.
# Histidine and several peptides with histidine in different positions were tested at 1:1 and 2:1 peptide:copper ratios for their ability to inhibit the production of hydroxyl radicals. Also, a peptide having an acetylated aspartic acid (Ac-Asp) as the N-terminal amino acid was also tested. In Table 11, the % inhibition is the percent decrease in absorbance compared to buffer alone divided by the absorbance of the buffer alone.
# [5] = Inhibition of hydroxyl radical production by peptides, Cu(II)/ascorbic acid deoxyribose/TBA assay, Example 16; assay type: biochemical
# Procedure: The ability of the peptides listed in Table 14 to inhibit the generation of hydroxyl radicals was tested. Hydroxyl radicals were generated by mixing Cu(II) and ascorbic acid. When deoxyribose was added, the hydroxyl radicals, if present, attacked the deoxyribose to produce fragments. Heating the fragments at low pH produced malonaldehyde that, upon the addition of 2-thiobarbituric acid (TBA), yielded a pink chromogen which was measured spectrophotometrically at 532 nm. Thus, absorbance at 532 nm is a measure of the damage to deoxyribose and, therefore, of hydroxyl radical formation.
# To perform the assay, (a) 50 μl of 200 μM CuCl2 in water, (b) water or enough of one of the test peptides in water (total volume of 150 μl) to give peptide:copper ratios of 1:4, 1:2, 1:1, 2:1, 4:1, 6:1 and 8:1, and (c) 525 μl buffer (20 mM KH2PO4 buffer, pH 7.4) were added to test tubes. The test tubes were incubated for 15 minutes at room temperature. Then, 25 μl of 20 mM ascorbic acid in buffer and 250 μl of 7.5 mM 2-deoxy-D-ribose in water were added to each test tube, and the test tubes were incubated for 1 hour at 37° C. Finally, 1 ml of 1% (w/v) TBA in 50 mM NaOH and 1 ml of glacial acetic acid were added to each test tube, and the test tubes were incubated in boiling water for 15 minutes. After the test tubes had cooled for 15 minutes, the absorbance at 532 nm was read. The results are presented in attached FIGS. 26A-V.
# [6] = compound:copper 1:1, copper only control 0.767
# [7] = compound:copper 2:1, copper only control 0.767
# [8] = peptide:copper ratios of 2:1 or less
# [9] = compound:copper 1:1, copper only control 0.954
# [10] = compound:copper 2:1, copper only control 0.954
compound,measurement,setting,value
[Cl][Cu][Cl] [CuCl2],IL-8 secretion as compared to controls incubated with water,[1],> 5.5 fold higher
C[C@H](NC(=O)[C@@H](N)CC(=O)O)C(=O)N[C@@H](Cc1c[nH]cn1)C(=O)N[C@@H](CCCCN)C(=O)O [L-Asp L-Ala L-His L-Lys] (H-DAHK-OH),passage through a model of the blood brain barrier,[2],pass through a model of the blood brain barrier
same,Percent Inhibition (degradation of 2-deoxy-D-ribose),[3]; tetrapeptide 0.12 mM (Cu(II):tetrapeptide 1:1.2),38%
same,Percent Inhibition (degradation of 2-deoxy-D-ribose),[3]; tetrapeptide 0.2 mM (Cu(II):tetrapeptide 1:2),73%
Acetylated-L-Asp L-Ala L-His L-Lys L-Ser L-Glu L-Val L-Ala L-His L-Arg L-Phe L-Lys (Ac-DAHKSEVAHRFK; listed as Homo sapiens),% Inhibition (decrease in absorbance compared to buffer alone),[4]; compound:copper 1:1,16.9%
same,Absorbance at 532 nm,[4]; [6],0.633
same,% Inhibition (decrease in absorbance compared to buffer alone),[4]; compound:copper 2:1,27.5%
same,Absorbance at 532 nm,[4]; [7],0.692
Ala Ala His His (AAHH),inhibition of hydroxyl radical production,[5]; 1:4 peptide:copper ratio,complete inhibition
same,inhibition of hydroxyl radical production,[5]; [8],effectively inhibited hydroxyl radical production
Asp Ala His Lys-NH2 (DAHK-NH2),inhibition of hydroxyl radical production,[5]; [8],effectively inhibited hydroxyl radical production
Catalase,formation of the pink chromogen,[4]; catalase 0-80 nM,prevent the formation of the pink chromogen
same,formation of the pink chromogen,[4]; catalase with L-Asp L-Ala L-His L-Lys present at tetrapeptide/copper 1:1,prevents the formation of the pink chromogen
DAHGMTCANC (cysteine pairing not given here),inhibition of hydroxyl radical production,[5]; 1:1 peptide:copper ratio,complete inhibition
same,inhibition of hydroxyl radical production,[5]; [8],effectively inhibited hydroxyl radical production
DAHGMTCARC (cysteine pairing not given here),inhibition of hydroxyl radical production,[5]; [8],effectively inhibited hydroxyl radical production
L-Ala L-His L-Lys L-Ser L-Glu L-Val L-Ala L-His L-Arg L-Phe L-Lys (AHKSEVAHRFK; listed as Homo sapiens),% Inhibition (decrease in absorbance compared to buffer alone),[4]; compound:copper 1:1,11.6%
same,Absorbance at 532 nm,[4]; [9],0.843
same,% Inhibition (decrease in absorbance compared to buffer alone),[4]; compound:copper 2:1,95.1%
same,Absorbance at 532 nm,[4]; [10],0.047
L-Asp L-Ala L-His L-Lys L-Ser L-Glu L-Val L-Ala L-His L-Arg L-Phe L-Lys (DAHKSEVAHRFK; listed as Homo sapiens),% Inhibition (decrease in absorbance compared to buffer alone),[4]; compound:copper 1:1,13.2%
same,Absorbance at 532 nm,[4]; [6],0.645
same,% Inhibition (decrease in absorbance compared to buffer alone),[4]; compound:copper 2:1,95.8%
same,Absorbance at 532 nm,[4]; [7],0.040
L-His L-Lys L-Ser L-Glu L-Val L-Ala L-His L-Arg L-Phe L-Lys (HKSEVAHRFK; listed as Homo sapiens) [His Lys Ser Glu Val Ala His Arg Phe Lys],% Inhibition (decrease in absorbance compared to buffer alone),[4]; compound:copper 1:1,24.9%
same,Absorbance at 532 nm,[4]; [9],0.716
same,% Inhibition (decrease in absorbance compared to buffer alone),[4]; compound:copper 2:1,46.6%
same,Absorbance at 532 nm,[4]; [10],0.509
Ser Gly His,inhibition of hydroxyl radical production,[5]; [8],effectively inhibited hydroxyl radical production
Thr Leu His,inhibition of hydroxyl radical production,[5]; [8],effectively inhibited hydroxyl radical production
